Measured values as given in US20210283107A1, “Methods to Expand the Spectrum of Gram-Positive Antibiotics” (NORTH CAROLINA STATE UNIVERSITY, priority 2016, published 2021).
In brackets after ≈: the same amount, converted by molar mass. Several values for one entry are separate records, joined by “and”; a condition that tells them apart may be missing. Equal values may be shown once. Each block holds one molecule with its values, some of them ahead of it.

Key:
[1] = tested on: A. baumannii strain 5075 (AB5075); experiment: Broth microdilution MIC determination of compound alone; assay type: cell-based; conditions: Acinetobacter baumannii; compound alone; AB5075; read-out: MIC
Description: Our initial screening began by testing a diverse selection of 2-AI compounds from our internal library for their minimal inhibitory concentrations (MIC) against A. baumannii isolate 5075.
(§1) Day Cultures (6 h) were subcultured to 5×10^5 CFU/mL in cation adjusted Mueller-Hinton broth (CAMHB). Aliquots (1 mL) were placed in culture tubes, and compound was added from 100 mM stock solutions, such that the compound concentration equaled the highest concentration tested (200 μM or 64 μg/mL). Samples were then aliquoted (200 μL) into the first row of wells of a 96-well plate, with all remaining wells being filled with 100 μL of initial bacterial subculture. The wells in row one were mixed five times before 100 μL was transferred to the following row (row two). Row two was then mixed five times, and 100 μL was transferred to row three. This processed was repeated until the final row had been mixed. This process provided a serial dilution of the compound. Plates were covered with Glad Press n'Seal and were incubated under stationary conditions at 37° C. for 16 hours. MIC values were recorded as the lowest concentration at which no bacterial growth was observed.

[2] = tested on: A. baumannii strain 5075 (AB5075); experiment: Macrolide sensitization / antibiotic resensitization: antibiotic MIC in presence of compound (broth microdilution); assay type: cell-based, Acinetobacter baumannii; conditions: for Fold reduction (erythromycin MIC): compound at 60 μM vs antibiotic alone; for MIC: Acinetobacter baumannii, read-out: MIC (μg/mL) of the antibiotic
Description: A. baumannii 5075 was plated on LB agar, then grown in CAMHB for 6-8 h and this culture was used to inoculate fresh CAMHB (5×10^5 CFU/mL). The resulting suspension was aliquoted (5 mL) into culture tubes and compound, from 100 mM DMSO stock, was added. One aliquot was not treated (control). 1 mL of each sample was transferred to a new culture tube and antibiotic was added. Rows 2-12 of a 96-well microtiter plate were filled with 100 μL/well from the remaining 4 mL bacterial subcultures, allowing the concentration of compound to be kept uniform throughout the antibiotic dilution procedure. Samples containing antibiotic were aliquoted (200 μL) into the corresponding first row wells of the microtiter plate. Row 1 wells were mixed 6 to 8 times then 100 μL was withdrawn and transferred to row 2. Row 2 wells were mixed 6 to 8 times, followed by a 100 μL transfer from row 2 to row 3. This procedure was repeated to serially dilute the rest of the rows of the microtiter plate, with the exception of the final row, to which no antibiotic was added (to check for growth of bacteria in the presence of compound alone). The microtiter plate was then covered, placed in a covered damp plastic container and incubated under stationary conditions at 37° C. After 16-18 hrs minimum inhibitory concentration (MIC) values were recorded as the lowest concentration of antibiotic at which there was no visible growth of bacteria. Experiments were carried out in duplicate each time and repeated at least twice.
The difference in antibiotic MIC between the control (no compound) sample, and the samples containing each compound was recorded as the fold-reduction.
(§2) Day Cultures (6 h) were subcultured to 5×10^5 CFU/mL in cation adjusted Mueller-Hinton broth (CAMHB). […] One milliliter of the resulting solution was aliquoted into a separate culture tube and was dosed with antibiotic so that the resulting concentration was the highest desirable concentration to be tested. Bacteria treated with antibiotic alone were used as a control. Row one of a 96-well plate was filled with 200 μL of the antibiotic/compound solution, and the remaining rows were filled with 100 μL of the remaining 4 mL bacterial subculture. The wells in row one were mixed five times before 100 μL was transferred to the following row (row two). Row two was then mixed five times, and 100 μL was transferred to row three. This process was repeated until the second to last row had been reached. The last row is left unexposed to antibiotic in order to serve as a negative control. The antibiotic only treated bacteria was plated by aliquoting 200 μL of the treated bacteria into row one and filling the remaining rows with untreated bacteria from the original bacteria subculture. The rows were mixed in the same way as described above. Plates were covered with Glad Press n'Seal and were incubated under stationary conditions at 37° C. for 16 hours. MIC values were recorded as the lowest concentration at which no bacterial growth was observed. Fold reductions were determined by comparison of the compound treated wells with the antibiotic only treated control wells.

AB 5075 = experiment: Backlight assay for membrane permeability; assay type: cell-based, Acinetobacter baumannii; conditions: AB5075
Description: The assay was initially performed at 10, 20 and 30 μM with compounds 1 and 4 (Table 16). […] When the concentration is lowered to 20 μM, the percent of membrane disrupted also decreases to 78% and 83% respectively. When further decreasing the concentration to 10 μM, the membrane disruption decreases to 39 and 44% respectively. Due to the similar structure and lack of potentiation activity, compound 25 was screened at 10, 20 and 30 μM to compare membrane permeability with that of active compounds. The percent disruption was less than seen with compounds 1 and 4 being 53, 54 and 60% respectively.

[3] = tested on: A. baumannii mutant AB522; experiment: MIC against Tn-seq transposon mutant AB522; assay type: cell-based; conditions: Acinetobacter baumannii
Description: (§3) During individual MIC screening, two mutants, AB522 and AB1310, were identified due to their increased sensitivity to the three macrolide antibiotics and vancomycin when compared to AB 5075 (Table 17).
as §1

[4] = tested on: A. baumannii mutant AB1310; experiment: MIC against Tn-seq transposon mutant AB1310; assay type: cell-based; conditions: Acinetobacter baumannii
Description: as §3, §1

A. baumannii strain 5197 = experiment: Potentiation of clarithromycin and vancomycin against clinical isolate; assay type: cell-based, Acinetobacter baumannii; conditions: antibiotic alone
Description: (§4) As previously stated, A. baumannii 5075 was chosen for these studies due to its virulence and multidrug resistance, but to further analyze the activity of our lead compounds, 23 A. baumannii clinical isolates obtained from Walter Reed Army Institute of Research (WRAIR) were tested.
as §2

A. baumannii strain 5256 = experiment: as above; assay type: cell-based, Acinetobacter baumannii; conditions: antibiotic alone
Description: as §4, §2

A. baumannii strain 3806 = experiment: as above; assay type: cell-based, Acinetobacter baumannii; conditions: antibiotic alone
Description: as §4, §2

A. baumannii strain 4269 = experiment: as above; assay type: cell-based, Acinetobacter baumannii; conditions: antibiotic alone
Description: as §4, §2

A. baumannii strain 5711 = experiment: as above; assay type: cell-based, Acinetobacter baumannii; conditions: antibiotic alone
Description: as §4, §2

A. baumannii strain 4991 = experiment: as above; assay type: cell-based, Acinetobacter baumannii; conditions: antibiotic alone
Description: as §4, §2

A. baumannii strain 3785 = experiment: as above; assay type: cell-based, Acinetobacter baumannii; conditions: antibiotic alone
Description: as §4, §2

A. baumannii strain 4025 = experiment: as above; assay type: cell-based, Acinetobacter baumannii; conditions: antibiotic alone
Description: as §4, §2

A. baumannii strain 4498 = experiment: as above; assay type: cell-based, Acinetobacter baumannii; conditions: antibiotic alone
Description: as §4, §2

A. baumannii strain 4052 = experiment: as above; assay type: cell-based, Acinetobacter baumannii; conditions: antibiotic alone
Description: as §4, §2

A. baumannii strain 4448 = experiment: as above; assay type: cell-based, Acinetobacter baumannii; conditions: antibiotic alone
Description: as §4, §2

A. baumannii strain 4795 = experiment: as above; assay type: cell-based, Acinetobacter baumannii; conditions: antibiotic alone
Description: as §4, §2

A. baumannii strain 3560 = experiment: as above; assay type: cell-based, Acinetobacter baumannii; conditions: antibiotic alone
Description: as §4, §2

A. baumannii strain 4026 = experiment: as above; assay type: cell-based, Acinetobacter baumannii; conditions: antibiotic alone
Description: as §4, §2

A. baumannii strain 4957 = experiment: as above; assay type: cell-based, Acinetobacter baumannii; conditions: antibiotic alone
Description: as §4, §2

A. baumannii strain 3927 = experiment: as above; assay type: cell-based, Acinetobacter baumannii; conditions: antibiotic alone
Description: as §4, §2

A. baumannii strain 4027 = experiment: as above; assay type: cell-based, Acinetobacter baumannii; conditions: antibiotic alone
Description: as §4, §2

A. baumannii strain 4490 = experiment: as above; assay type: cell-based, Acinetobacter baumannii; conditions: antibiotic alone
Description: as §4, §2

A. baumannii strain 8967 = experiment: as above; assay type: cell-based, Acinetobacter baumannii; conditions: antibiotic alone
Description: as §4, §2

A. baumannii strain 5001 = experiment: as above; assay type: cell-based, Acinetobacter baumannii; conditions: antibiotic alone
Description: as §4, §2

A. baumannii strain 4878 = experiment: as above; assay type: cell-based, Acinetobacter baumannii; conditions: antibiotic alone
Description: as §4, §2

A. baumannii strain 4456 = experiment: as above; assay type: cell-based, Acinetobacter baumannii; conditions: antibiotic alone
Description: as §4, §2

MIC [1]: > 200 µM
Compound: Nc1nc(-c2ccc(NC(=O)c3ccc(Cl)cc3Cl)cc2)c[nH]1 [Compound 20]
Fold reduction (erythromycin MIC) ([2]; AB5075): 4 fold

MIC [1]: > 200 µM
Compound: Nc1nc(-c2ccc(NC(=O)c3ccc(Br)cc3F)cc2)c[nH]1 [Compound 21]
Fold reduction (erythromycin MIC) ([2]; AB5075): 8 fold

MIC [1]: > 200 µM
Compound: Nc1nc(-c2ccc(NC(=O)c3ccc(I)cc3)cc2)c[nH]1 [Compound 25]
Disrupted bacterial membrane (%) (AB 5075; compound at 10 μM): 53% and 53.7%
Disrupted bacterial membrane (%) (AB 5075; compound at 20 μM): 54%
Disrupted bacterial membrane (%) (AB 5075; compound at 30 μM): 60%

Continued, molecule first:

Compound: CC[C@H]1OC(=O)[C@H](C)[C@@H](O[C@H]2C[C@@](C)(OC)[C@@H](O)[C@H](C)O2)[C@H](C)[C@@H](O[C@@H]2O[C@H](C)C[C@H](N(C)C)[C@H]2O)[C@](C)(O)C[C@@H](C)C(=O)[C@H](C)[C@@H](O)[C@]1(C)O [Erythromycin]
MIC [3]: 2 µg/mL (≈ 2.73 µM)
MIC ([2]; antibiotic alone, no compound (control row), AB5075): 32 µg/mL
MIC [4]: 4 µg/mL (≈ 5.45 µM)

Compound: CN[C@H](CC(C)C)C(=O)N[C@H]1C(=O)N[C@@H](CC(N)=O)C(=O)N[C@H]2C(=O)N[C@H]3C(=O)N[C@H](C(=O)N[C@H](C(=O)O)c4cc(O)cc(O)c4-c4cc3ccc4O)[C@H](O)c3ccc(c(Cl)c3)Oc3cc2cc(c3O[C@@H]2O[C@H](CO)[C@@H](O)[C@H](O)[C@H]2O[C@H]2C[C@](C)(N)[C@H](O)[C@H](C)O2)Oc2ccc(cc2Cl)[C@H]1O [Vancomycin, reference compound]
MIC (μg/mL) of the antibiotic (A. baumannii strain 5197): 512 µg/mL
MIC (μg/mL) of the antibiotic (A. baumannii strain 5256): 512 µg/mL
MIC (μg/mL) of the antibiotic (A. baumannii strain 3806): 256 µg/mL
MIC (μg/mL) of the antibiotic (A. baumannii strain 4269): 512 µg/mL
MIC (μg/mL) of the antibiotic (A. baumannii strain 5711): >512 µg/mL
MIC (μg/mL) of the antibiotic (A. baumannii strain 4991): 512 µg/mL
MIC (μg/mL) of the antibiotic (A. baumannii strain 3785): 512 µg/mL
MIC (μg/mL) of the antibiotic (A. baumannii strain 4025): 512 µg/mL
MIC (μg/mL) of the antibiotic (A. baumannii strain 4498): 512 µg/mL
MIC (μg/mL) of the antibiotic (A. baumannii strain 4052): >512 µg/mL
MIC (μg/mL) of the antibiotic (A. baumannii strain 4448): 512 µg/mL
MIC (μg/mL) of the antibiotic (A. baumannii strain 4795): >512 µg/mL
MIC (μg/mL) of the antibiotic (A. baumannii strain 3560): 256 µg/mL
MIC (μg/mL) of the antibiotic (A. baumannii strain 4026): 512 µg/mL
MIC (μg/mL) of the antibiotic (A. baumannii strain 4957): 512 µg/mL
MIC (μg/mL) of the antibiotic (A. baumannii strain 3927): 256 µg/mL
MIC (μg/mL) of the antibiotic (A. baumannii strain 4027): 512 µg/mL
MIC (μg/mL) of the antibiotic (A. baumannii strain 4490): 256 µg/mL
MIC (μg/mL) of the antibiotic (A. baumannii strain 8967): 512 µg/mL
MIC (μg/mL) of the antibiotic (A. baumannii strain 5001): 512 µg/mL
MIC (μg/mL) of the antibiotic (A. baumannii strain 4878): 512 µg/mL
MIC (μg/mL) of the antibiotic (A. baumannii strain 4456): 512 µg/mL
MIC [3]: 64 µg/mL (≈ 44.2 µM)
MIC [2]: 256 µg/mL
MIC [4]: 64 µg/mL (≈ 44.2 µM)
